Laboratory results taken from patent publication US20240417812A1, “METHODS FOR TREATING SOLID CANCER PATIENTS WITH CLONAL HEMATOPOIESIS OF INDETERMINATE POTENTIAL” (Olatec Therapeutics, Inc., priority 2022, published 2024).
Where two headings read alike, the source gives them in different places.

How the values were obtained:
[1] = orally administered to healthy subjects; cited from earlier work
[2] = test system: keratinocyte chemoattractant (KC); assay: Plasma KC of BM chimera mice; type: in vivo, mouse; details: Tet2+/− chimeras, dapansutrile diet vs standard diet, p<0.05
Text: (§1) FIGS. 5A-5B show plasma cytokine production of chemokine C-C motif ligand 2 (CCL2, 5A) and keratinocyte chemoattractant (KC, 5B) of BM chimera mice from FIG. 2

[3] = test system: tumor-infiltrating granulocytes; assay: Flow cytometry of tumor-infiltrating granulocytes of BM chimera mice; type: in vivo, mouse; details: Tet2+/− chimeras
Procedure: After 6 weeks of engraftment, mice were given breast tumors via orthotopic transplantation of breast cancer cells. Tumor progression was assessed by measuring the volume of the tumor in the mouse using calipers. After 15 days, mice were sacrificed, and their bone marrow, peripheral blood, and tumors were harvested for flow cytometry analysis to determine the levels of immune cell populations and relative contribution from WT or Tet2+/+ or Tet2+/− bone marrow cells.
Bone marrow isolation and cell staining was performed on ice in staining medium (SM; Hanks Balanced Salt Solution [HBSS 1×, Corning 1-022-CM] supplemented with heat inactivated fetal bovine serum [FBS, VWR 97068-05] to a final concentration of 2%). Femurs and tibiae were flushed with 3 mL of SM and followed by RBC lysis with ACK lysis buffer. Peripheral blood was isolated via the heart and placed into RBC lysis buffer. After RBC lysis cells were incubated on ice for 30 minutes with antibody cocktails prior to being washed and resuspended in SM containing propidium iodide to stain dead cells. Flow cytometry was performed on the BD FACSCelesta.

NLRP3 inflammasome = NLRP3 inflammasome (Homo sapiens, UniProt Q96P20); details: cited from earlier work
E0771 cells [4] = assay: E0771 orthotopic breast tumor model in germline Tet2+/+ or Tet2+/− mice; type: in vivo, mouse
Procedure: 6-8 week old B6(Cg)-Tet2tm1.2Rao/J (JAX) female mice heterozygous for Tet2 allele or wild-type for Tet2 allele were purchased for Jackson Laboratories.
The murine metastatic mammary cancer cell line E0771 was purchased from ATCC. E0771 cells were cultured in RPMI (Corning) supplemented with 10% FBS, 1% HEPES, 100 units/ml penicillin and 0.1 mg/ml streptomycin. Cells were maintained in a humidified 5% CO2 atmosphere at 37° C.
(§2) 2×10^5 E0771 cells were mixed with matrigel and implanted orthotopically into the mammary fat pad (day 0). Mice treated with dapansutrile were fed ad libitum with food pellets containing 7.5 g dapansutrile/kg food, which started on day 3 after E0771 cell implantation and continued until being sacrificed. Mice were sacrificed on day 18 for the germline mouse model and day 15 for the chimeric mouse model. Mice typically consume about 4 g of food per day, resulting in an approximate daily dose of 0 mg/kg/day for control groups and 1,000 mg/kg/day for the treatment groups. […] Wild-type and Tet2+/− mice were fed with control food pellets without dapansutrile. Mice were sacrificed following 15-18 days after E0771 cell implantation. Tumor volumes were assessed using ½(L×W×H) measured via digital caliper.
Myeloid cells are the predominant source of tumor-promoting IL-1β in the breast cancer TME, and TET2 mutations have been reported in tumor-infiltrating leukocytes. […] We orthotopically implanted the murine metastatic luminal B breast cancer cell line, E0771, into Tet2+/+ (WT) or Tet2+/− germline mice. Three days after implantation, mice were placed on a control chow diet or a nutritionally identical diet enriched with OLT1177® (dapansutrile) for 15 days. Mice were sacrificed following […] after E0771 cell implantation.

IL-1β = IL-1β production from bone marrow adherent cells isolated from tumor-bearing mice (ELISA); type: cell-based, mouse; details: adherent bone marrow cells from tumor-bearing Tet2+/− mice, LPS stimulated, dapansutrile treated vs untreated; p<0.05
Procedure: Bone marrow cells from tumor-bearing mice was collected and filtered through […] cell strainer. 3×10^6 cells were plated in 24-well plates and incubated overnight. The next day to non-adherent fraction was removed and the adherent fraction was treated with 10 μM dapansutrile and were cultured in RPMI supplemented with 10% FBS, 100 units/ml penicillin and 0.1 mg/ml streptomycin for 24 hours. Cytokines were measured in cell culture supernatants using DuoSet ELISA (R&D Systems).
Bone marrow cells were collected from the four long bones as described above and filtered through a […] cell strainer prior to counting. 1×10^6 cells were plated in flat bottom tissue culture plates and incubated overnight. The next day the non-adherent fraction was removed and the adherent fraction was used for downstream experiments.
For western blot and cytokine analysis, adherent bone marrow cells were stimulated±LPS (100 ng/mL) and cultured for an additional 24 hours. Cells were cultured in RPMI supplemented with 10% FBS, 100 units/ml penicillin and 0.1 mg/ml streptomycin. […] Cytokines were measured in cell culture supernatants using DuoSet ELISA (R&D Systems).
Next, we assessed the inflammatory potential of myeloid cells from tumor-bearing mice. […]

E0771 cells [5] = assay: E0771 orthotopic breast tumor model in Tet2+/+ or Tet2+/− bone marrow chimeric mice; type: in vivo, mouse
Text: as §2
To create a mouse model that more closely resembles human CHIP, we generated mice with chimeric bone marrow (BM) that was 75% wild type (WT), and 25% Tet2 […] (Tet2+/+) or heterozygous (Tet2+/−). To identify the contribution of WT or Tet2+/− cells to hematopoiesis, we used the pan hematopoietic marker CD45. […]
(§3) After 6 weeks of engraftment, mice were given breast tumors via orthotopic transplantation of breast cancer cells. Tumor progression was assessed by measuring the volume of the tumor in the mouse using calipers. […]

[6] = test system: chemokine C-C motif ligand 2 (CCL2); assay: Plasma CCL2 of BM chimera mice; type: in vivo, mouse; details: Tet2+/− chimeras, dapansutrile diet vs standard diet, p<0.05
Text: as §1

[7] = Blood level in mice fed dapansutrile food pellets; type: in vivo, mouse; details: 7.5 g/kg of dapansutrile in food (approx. 1,000 mg/kg/day)
Text: as §2

Tet2+/− clones = assay: Expansion of Tet2+/− clones in tumor-bearing BM chimera mice; type: in vivo, mouse; details: dapansutrile diet
Text: To create a mouse model that more closely resembles human CHIP, we generated mice with chimeric bone marrow (BM) that was 75% wild type (WT), and 25% Tet2 […] (Tet2+/+) or heterozygous (Tet2+/−). To identify the contribution of WT or Tet2+/− cells to hematopoiesis, we used the pan hematopoietic marker CD45. We used two congenic mouse strains with variants in CD45 C57BL/6 and Boy/J (CD45.2 and CD45.1, respectively), which can be identified with fluorescently labeled antibodies using flow cytometry analysis. To generate the chimeric BM, we lethally irradiated Boy/J recipient mice (CD45.1) with an 11gy split-dose administered three hours apart. Irradiated recipient mice were then transplanted with 2 million unfractionated BM cells that were a mix of 75% CD45.1 WT and 25% CD45.2
Tet2+/+ or Tet2+/−. Cells were given via a retro-orbital (RO) sinus injection. To monitor the engraftment of donor-derived cells, mice were bled every four weeks via the submandibular vein. […]
as §3
In this example, we first assessed the extent to which Tet2-deficient myeloid cells infiltrated into peripheral blood (FIG. 3A) and in the tumor (FIG. 3B).

[8] = humans treated orally at 1000 mg/day; cited from earlier work

Chain of NLRP3 inflammasome (Q96P20 whole entry): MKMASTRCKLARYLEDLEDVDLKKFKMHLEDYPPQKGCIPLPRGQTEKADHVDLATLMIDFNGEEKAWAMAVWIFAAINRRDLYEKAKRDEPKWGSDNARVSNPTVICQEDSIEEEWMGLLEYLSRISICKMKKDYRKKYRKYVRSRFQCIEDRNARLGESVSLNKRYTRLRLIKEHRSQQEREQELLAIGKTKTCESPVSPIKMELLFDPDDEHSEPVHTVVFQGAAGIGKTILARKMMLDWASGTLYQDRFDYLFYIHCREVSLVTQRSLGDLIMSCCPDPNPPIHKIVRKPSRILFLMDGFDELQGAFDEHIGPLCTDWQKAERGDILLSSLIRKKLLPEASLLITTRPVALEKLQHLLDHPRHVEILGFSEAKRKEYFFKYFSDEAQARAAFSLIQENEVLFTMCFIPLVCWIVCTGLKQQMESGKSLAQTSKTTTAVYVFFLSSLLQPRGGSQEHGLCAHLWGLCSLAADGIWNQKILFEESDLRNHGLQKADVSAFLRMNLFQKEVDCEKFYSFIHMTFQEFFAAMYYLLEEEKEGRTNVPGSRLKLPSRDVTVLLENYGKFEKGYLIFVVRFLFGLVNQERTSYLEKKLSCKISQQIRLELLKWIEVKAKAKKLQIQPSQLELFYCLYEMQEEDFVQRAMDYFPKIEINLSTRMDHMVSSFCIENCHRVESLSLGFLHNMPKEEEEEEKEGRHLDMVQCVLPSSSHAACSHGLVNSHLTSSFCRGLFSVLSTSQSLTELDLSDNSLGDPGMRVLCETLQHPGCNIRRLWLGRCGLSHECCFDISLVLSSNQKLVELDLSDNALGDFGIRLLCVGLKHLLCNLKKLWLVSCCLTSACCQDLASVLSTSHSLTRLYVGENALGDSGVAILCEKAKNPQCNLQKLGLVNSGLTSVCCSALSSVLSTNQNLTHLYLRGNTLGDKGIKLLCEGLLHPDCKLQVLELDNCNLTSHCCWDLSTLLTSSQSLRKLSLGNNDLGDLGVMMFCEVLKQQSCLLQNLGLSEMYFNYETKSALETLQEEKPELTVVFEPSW

blood level [7]: ~40 µg/mL
SMILES: CS(=O)(=O)CCC#N [dapansutrile, 3-methanesulfonyl-propionitrile]
safety [1]: safe | circulating KC [2]: significantly decreased | tumor-infiltrating granulocytes (frequency) ([3]; dapansutrile diet vs standard diet, p<0.05): significantly decreased | MHC-II expression (gMFI) on tumor-infiltrating granulocytes ([3]; dapansutrile diet, p<0.001): rescued | NLRP3 inflammasome inhibition (NLRP3 inflammasome): selectively inhibit | tumor growth (E0771 cells [4]; Tet2+/+ (WT) germline mice on dapansutrile vs standard diet, p<0.05): significantly decreased | tumor growth, difference between genotypes (E0771 cells [4]; Tet2+/+ (WT) vs Tet2+/− mice, both on dapansutrile diet): No changes in tumor growth | tumor growth reduction (E0771 cells [4]; Tet2+/− germline mice, dapansutrile diet (7.5 g/kg food, from day 3) vs Tet2+/− on standard diet, p<0.01): 68% | IL-1β secretion (IL-1β): significantly less | tumor growth (E0771 cells [5]; Tet2+/+ chimeric mice, dapansutrile diet, to baseline level equivalent to dapansutrile-treated Tet2+/− chimeric mice): suppressed tumor growth | tumor growth (E0771 cells [5]; Tet2+/− chimeric mice, dapansutrile diet from day 3 vs control chow, p<0.001): suppressed | circulating CCL2 [6]: significantly decreased | expansion of Tet2+/− clones (Tet2+/− clones): able to reduce | blood level [8]: 40 µg/mL
